These results are taken from PubChem BioAssay AID1996.

≈ marks a conversion by molar mass, not a printed value.

As usually defined, the kinetic solubility is the concentration staying in solution when a stock, usually in DMSO, is diluted into the medium.

The conditions of the series: buffer; pH 7.4; 200.0 µM.
On to `CCCN1CCN(C(=O)c2c(Cl)cnn2C)CC1`, for which the kinetic solubility was above 40.6 µg/mL.
The value for `COc1cccc2cc(C(=O)NC3CC4CCC3C4)oc12` (stereo unspecified) was 31.6 µg/mL (≈ 111 µM); that for `COc1ccccc1CC(=O)N1CCN(c2cccc(Cl)c2)CC1` was 22 µg/mL (≈ 63.8 µM).
The value for `C=CCC1c2cccc(C(=O)O)c2C(=O)N1c1cccc(OC)c1` (stereo unspecified) was above 48.5 µg/mL; that for `CCC(C)c1ccc(NC(=O)Nc2cnccn2)cc1` (stereo unspecified) was 1.3 µg/mL (≈ 4.81 µM).
As to `Cn1ccnc1SCc1cccc([N+](=O)[O-])c1`, the kinetic solubility is above 37.4 µg/mL.
As for `CC(=O)Nc1ccc(CN2CCCCCC2)cc1`, the figure is 33.9 µg/mL (≈ 138 µM).
As for `O=C(O)CCSc1nc2ccccc2n1-c1ccccc1`, the figure is above 44.8 µg/mL.
As for `O=C(NCc1ccc(Cl)cc1)N1CCc2ccccc2C1`, the figure is 4.5 µg/mL (≈ 15 µM).
As to `COc1cccc(CN2CCN(Cc3ccc(O)cc3)CC2CCO)c1` (stereo unspecified), the solubility (kinetic) stood at 49.2 µg/mL (≈ 138 µM).
As for `CC12CN3CC(C)(CN(C1)C3c1ccc3c(c1)OCO3)C2O` (stereo unspecified), the figure is above 45.4 µg/mL; as for `C=C(C)c1cccc(C(C)(C)NC(=O)Nc2cccnc2)c1`, 9.4 µg/mL (≈ 31.8 µM).
On to `COc1cccc(N/C=C/C(=O)c2ccc(C)cc2)c1`, for which the solubility (kinetic) turned out to be 2.4 µg/mL (≈ 8.98 µM).
Compound `O=C1CC(c2ccccc2)CN1` (stereo unspecified) had a kinetic solubility above 24.2 µg/mL.
As for `Cn1c(N)c(C(=O)COC(=O)c2cccc(S(=O)(=O)NCc3ccccc3)c2)c(=O)n(C)c1=O`, the figure is 17.6 µg/mL (≈ 36.2 µM).
As for `COc1cccc(NC(=O)C(=O)NCCc2ccc(F)cc2)c1`, the figure is below 0.3 µg/mL; as for `Cc1ccc(Nc2nc(C)c3c(n2)CC(C)CC3=O)c(C)c1` (stereo unspecified), 1.7 µg/mL (≈ 5.76 µM); as for `CN(C(=O)C1CCC(=O)N(C2CC2)C1)C1CCCCC1` (stereo unspecified), above 41.8 µg/mL.
As for `Cc1ccc(NC(=O)C2CCCN(c3ncccn3)C2)cc1C` (stereo unspecified), the figure is 2.1 µg/mL (≈ 6.77 µM); as for `Cc1cc(OCC(O)CN2CCCC2)cc(C)c1Cl.Cl` (stereo unspecified), 42.3 µg/mL; as for `CC(C)(C)S(=O)(=O)c1cnc(-c2ccc(Cl)cc2)nc1N`, below 0.2 µg/mL.
In turn, `CN1CC(=O)Nc2ccccc2C1=O` came in with a solubility (kinetic) above 28.5 µg/mL.
In the case of `CC1CCC2(CC1)NC(=O)N(CC(=O)Nc1ccc3c(c1)OCO3)C2=O` (stereo unspecified), the kinetic solubility was found to be 15.6 µg/mL (≈ 43.4 µM).
The value for `Cc1nccn1CC(O)COc1ccc(Cl)cc1Cl` (stereo unspecified) was above 45.2 µg/mL.
As for `COc1ccccc1NC(=O)C(=O)N1CCCC1`, the figure is 35.3 µg/mL (≈ 142 µM); as for `CC1CCCN(CC(=O)N2c3ccccc3Sc3ccccc32)C1` (stereo unspecified), 31.7 µg/mL (≈ 93.7 µM); as for `CC1CC(C)CN(C(=O)CNS(=O)(=O)c2cccs2)C1` (stereo unspecified), 17.6 µg/mL (≈ 55.6 µM).
As for `O=C(COC(=O)c1ccccc1O)NCc1ccccc1Cl`, the figure is 5 µg/mL (≈ 15.6 µM); as for `Cc1noc(C)c1CSc1ccccc1C(=O)O`, above 39.5 µg/mL.
`COc1cc(C)ccc1OCC(=O)NCC1CCCO1` (stereo unspecified): the kinetic solubility is above 41.9 µg/mL.
The value for `CCCCCC(=O)NC(=S)NC1C2CC3CC(C2)CC1C3` (stereo unspecified) was 28.3 µg/mL (≈ 91.7 µM); that for `COc1ccc(C(=O)C2CCCN(Cc3cccc(C)n3)C2)c(OC)c1` (stereo unspecified) was above 53.2 µg/mL; that for `Cc1nc(-c2ccccc2Cl)sc1C(=O)/C=C/N(C)C` was 10.8 µg/mL (≈ 35.2 µM).
The value for `Cc1ccsc1-c1nc(CN2C[C@@H](C)O[C@@H](C)C2)c(C)o1` was above 46 µg/mL.
The value for `COc1ccc(C(=O)c2cnc[nH]2)cc1OC` was 33 µg/mL (≈ 142 µM).
`Nc1nc(NC(=O)c2ccccc2Cl)nn1-c1ccccc1` showed a solubility (kinetic) above 47.1 µg/mL.
Compound `Cc1ccc(/C=C/C(=O)O)cc1S(=O)(=O)N1CCC(Cc2ccccc2)CC1` gave a solubility (kinetic) of 53.2 µg/mL (≈ 133 µM).
As for `COC(=O)c1nn(-c2cccc(Cl)c2)cc(OC)c1=O`, the figure is above 44.2 µg/mL; as for `CN(CC(O)COc1ccc2ccccc2c1)C1CCCCC1.Cl` (stereo unspecified), above 52.5 µg/mL; as for `NC(=O)C1CCN(C(=O)CNC(=O)c2ccc(F)cc2)CC1`, above 46.1 µg/mL.
The value for `CN(CC(=O)N1CCCC1)S(=O)(=O)c1cccc(Cl)c1` was above 47.5 µg/mL; that for `Cc1ccccc1C(=O)c1c[nH]c(C(=O)NCCc2ccccn2)c1` was above 50 µg/mL.
As for `CCOc1ccccc1Nc1ccc(C(=O)O)cc1N`, the figure is 37.6 µg/mL (≈ 138 µM).
In turn, `Cc1occc1C(=O)N1CCCC(Nc2ccc(F)cc2)C1` (stereo unspecified) yielded a kinetic solubility above 45.4 µg/mL.
`COc1ccccc1CCNS(=O)(=O)c1cn(C)nc1C` gave a kinetic solubility above 46.4 µg/mL.
The value for `COc1ccc(CN(C)C(=O)c2ccc3c(=O)n4c(nc3c2)CCC4)cc1` was above 54.5 µg/mL; that for `O=C(CCc1nc2ccccc2s1)OCC(=O)c1ccc[nH]1` was 14.2 µg/mL (≈ 45.2 µM).
The value for `Cc1ccc(S(=O)(=O)N2CCC(C(=O)NCC3CCCCC3)CC2)cc1` was 1.6 µg/mL (≈ 4.23 µM); that for `COc1cc(CCC(=O)OCC(=O)N2CC(=O)Nc3ccccc32)cc(OC)c1OC` was above 64.3 µg/mL.
`O=C(COC(=O)c1ccco1)NC1CCCC1` yielded a kinetic solubility of 28.1 µg/mL (≈ 118 µM).
As for `COc1ccc(CC(=O)OCC(=O)NCc2ccc(C)cc2)cc1OC`, the figure is above 53.6 µg/mL.
